Assay results: patent US20250186532A1, “SHINE MUSCAT JELLY HAVING HIGH SENSORY APPEAL AND EXCELLENT ANTIOXIDANT AND ANTITHROMBOTIC ACTIVITIES, AND METHOD OF PREPARING SAME” (Andong National University Industry-Academic Cooperation …, priority 2023, published 2025)

Experiments:
thrombin = biological target: T1, thrombin (Homo sapiens, UniProt P00734); test: Thrombin time (blood coagulation inhibitory activity); assay type: biochemical
T1 construct: 50 μl of 0.5 U thrombin (Sigma Co., USA); purchased Sigma Co., USA
Experimental: (§1) An antithrombotic activity was measured for the three types of jellies prepared in Example 3, and the results are shown in Table 5. At this time, the blood coagulation inhibitory activity evaluation method was in accordance with the previously reported method (Sohn et al., 2004. Kor. J. Pharmacogn 35. 52-61; Kwon et al., 2004. J. Life Science, 14. 509-513; Ryu et al. 2010. J. Life Science, 20. 922-928). Experiments were conducted to measure thrombin time, prothrombin time, and activated Partial Thromboplastin Time (aPTT). For plasma, commercially available control plasma (MD Pacific Technology Co., Ltd, Huayuan Industrial Area, China) was used. The thrombin time, prothrombin time, and aPTT measurements were performed as follows.
At a temperature of 37° C., 50 μl of 0.5 U thrombin (Sigma Co., USA), 50 μl of 20 mM CaCl2), and 10 μl of sample extracts of various concentrations were mixed in a tube of Amelung coagulometer KC-1A (Japan), and reacted for 2 minutes. Thereafter, 100 μl of plasma was added thereto. Afterward, the time until the plasma coagulated was measured. Aspirin (Sigma Co., USA) was used as a control. […] The thrombin inhibition effect was expressed as an average value of experiments repeated more than three times. A thrombin inhibitory activity was expressed as the coagulation time upon sample addition divided by the coagulation time upon the solvent control addition.

prothrombin = test: Prothrombin time (blood coagulation inhibitory activity); assay type: biochemical
Experimental: as §1
At a temperature of 37° C., 70 μl of standard plasma (MD Pacific Co., China) and 10 μl of sample solutions of various concentrations were added into the tube of Amelung coagulometer KC-1A (Japan) and heated for 3 minutes. Thereafter, 130 μl of PT reagent was added thereto. Afterward, the time until the plasma coagulated was expressed as an average value of the experiments repeated three times. Aspirin (Sigma Co., USA) was used as a control. […] A prothrombin inhibitory activity was expressed as the coagulation time upon sample addition divided by the coagulation time upon the solvent control addition.

blood coagulation factor = test: Activated Partial Thromboplastin Time (aPTT); assay type: biochemical
Experimental: as §1
Activated Partial Thromboplastin Time (aPTT)
At a temperature of 37° C., 100 μl of plasma and 10 μl of sample extracts of various concentrations were added to the tube of Amelung coagulometer KC-1A (Japan) and heated for 3 minutes. Thereafter, 50 μl of aPTT reagent (Sigma, ALEXIN™) was added thereto. […] Afterward, the time until the plasma coagulated was measured. […] The results of aPTT were expressed as an average value of three repeated experiments. A blood coagulation factor inhibitory activity was expressed as the aPTT upon sample addition divided by the aPTT upon the solvent control addition.

[1] = Nitrite scavenging ability (Griess reagent); conditions: 0.2 mg/ml; nitrite solution 1 mM, pH 1.2, 37° C., 1 hour
Experimental: To measure the nitrite scavenging ability, a sample solution was added to the nitrite solution (1 mM), and 0.1 N HCl was further added thereto to adjust the pH of the mixture to 1.2. Thereafter, the mixture was reacted at a temperature of 37° C. for 1 hour, and then Griess reagent (Sigma Co., USA) was added, and the resulting solution was mixed. After leaving the resulting solution at room temperature for 15 minutes, the amount of remaining nitrite was measured by measuring absorbance at a wavelength of 520 nm. The nitrite scavenging ability (%) was calculated using the following equation.

[2] = compared to the untreated group, aspirin at 1.5 mg/ml

CC(=O)Oc1ccccc1C(=O)O [Aspirin]
Blood coagulation inhibitory activity, Thrombin time (thrombin; coagulation time upon sample addition / upon DMSO addition, control plasma, 37° C., aspirin 1.5 mg/ml, concentration not given for jellies): 1.26 ± 0.00
extension of thrombin time (thrombin; [2]): 1.26 times
Blood coagulation inhibitory activity, Prothrombin time (prothrombin; coagulation time upon sample addition / upon DMSO addition, standard plasma, 37° C., aspirin 1.5 mg/ml, concentration not given for jellies): 1.30 ± 0.02
extension of prothrombin time (prothrombin; [2]): 1.30 times
Blood coagulation inhibitory activity, aPTT (blood coagulation factor; aPTT upon sample addition / upon DMSO addition, plasma, 37° C., aspirin 1.5 mg/ml, concentration not given for jellies): 1.33 ± 0.02
extension of aPTT (blood coagulation factor; [2]): 1.33 times

O=C1O[C@H]([C@@H](O)CO)C(O)=C1O [Vitamin C]
Nitrite scavenging ability [1]: 62.5 ± 0.1%
